Results on 1 molecule are retold here after article PMC11148772, “Inhibition of protein translational machinery in triple-negative breast cancer as a promising therapeutic strategy” (Cell Reports Medicine, 2024).

The target in one experiment is YB-1 (Homo sapiens, UniProt P67809). The experiment is described as follows: Cellular thermal shift assay (CETSA). Further details: endogenous in cells; host or cells: MDA-MB-231. It is filed as binding. The note with it: MDA-MB-231 cells, 1.5 h. On the procedure: MDA-MB-231 cells treated with vehicle control (DMSO) or SU056 were analyzed by CETSA.[53] Cells were grown to 70–80% confluency and then treated with either DMSO (vehicle control) or SU056 (1 μM) for 1.5 h. Cells were then washed twice with PBS and divided into 10 PCR tubes (1 x 10^6 cells/tube in 100 μL PBS). The tubes incubated at different temperatures (37, 41, 44, 47, 50, 53, 56, 59, 63, 67°C) for 3 min in a thermal cycler, followed by 2 min at room temperature. The tubes were snap-frozen in liquid nitrogen, the cells were lysed using a freeze/thaw cycle, and the soluble and insoluble fractions were separated by centrifugation at 14,000 RPM for 30 min at 4°C. […] All samples were analyzed by LC-MS/MS in triplicate.
A Dionex Ultimate Rapid Separation Liquid Chromatography system (Thermo Fisher Scientific) was used to load 3 μL of the combined TMT-labeled peptides onto a PepMap C18 trap column (Thermo Fisher Scientific) with a flow rate set at 5 μL/min for 10 min. […] The flow rate throughout the gradient was set to 0.3 μL/min and each sample was analyzed in triplicates. Eluted peptides were analyzed using an Orbitrap Eclipse Tribrid mass spectrometer (Thermo Fisher Scientific). […] The most abundant precursor ions were subject to collision induced dissociation (CID) with a collisional energy set to […] and detected in the ion trap using Turbo scan rate. […]

For another experiment, the system named is SUM159 cells. Nature of the experiment: MTT cell viability assay. It is filed as cell-based. The conditions noted are these: Homo sapiens, 48 h. On the procedure: (§1) MDA-MB-231 (5000 cells per well), MDA-MB-468 (6000 cells per well), SUM159 (3000 cells per well), 4T1 (2000 cells per well), EMT6 (2000 cells per well), E0771 (3000 cells per well), MCF10A (5000 cells per well) and MCF12A (5000 cells per well) cells were seeded in 96-well culture plates. On the next day, cells were treated with either DMSO or indicated concentrations of SU056 for 48 h 3-(4,5-dimethylthiazol-2-yl)-2,5-diphenyltetrazolium bromide (MTT) (0.5 mg/mL) was dissolved in 1x PBS and 50 μL were added to each well and allowed to form formazan crystals (1–2 h) followed by removal of MTT. Formazan crystals were dissolved in DMSO and plates were scanned at 570nm using a Tecan multimode plate reader.
In general terms: Formazan colour is commonly taken as a measure of viable cells.

A further experiment relates to EMT6 cells. Nature of the experiment: MTT cell viability assay. It is filed as cell-based. The note with it: Mus musculus, 48 h. As to the method:
as §1

The subject of a further experiment is MDA-MB-468 cells. The experiment is described as follows: MTT cell viability assay. It counts as cell-based. The note with it: Homo sapiens, 48 h. As to the method:
as §1

For another experiment, the system named is 4T1 cells. Nature of the experiment: MTT cell viability assay. It counts as cell-based. The conditions noted are these: Mus musculus, 48 h. On the procedure:
as §1

The subject of a further experiment is E0771 cells. Nature of the experiment: MTT cell viability assay. It counts as cell-based. The conditions noted are these: Mus musculus, 48 h. On the procedure: as §1
The test system of the next experiment is MDA-MB-231 cells. The experiment is described as follows: MTT cell viability assay. It is filed as cell-based. The conditions noted are these: Homo sapiens, MDA-MB-231, 48 h. As to the method:
as §1

Experiment [1] relates to CA1262-PDX-TNBC and MA2821-PDX-TNBC tumors. The experiment is described as follows: Immunoblot of PDX tumor lysates. The conditions noted are these: daily oral 50 mg/kg for 3 weeks. It counts as in vivo, mouse. On the procedure: MDA-MB-231, MDA-MB-468, and SUM159 cells were grown to 60–70% confluency and treated with DMSO and SU056 (1 μM) for 12 and 24 h. After the specific treatment time was over, total cell lysates were prepared in non-denaturing lysis buffer. For protein lysate from tumors: randomly selected frozen sample; three from vehicle and SU056 treated group were homogenized in non-denaturing lysis buffer at 4°C for 5 min. 10 μg of protein lysate per sample was resolved on 8–16% SDS-PAGE. Membranes were probed with specific primary antibodies followed by detection with HRP-conjugated appropriate secondary antibodies, visualized by enhanced chemiluminescence detection system, and imaged using an iBright imaging system (Thermo Fisher, USA).
For orientation: In western blotting, separated proteins are transferred to a membrane and probed.

Broadly, the ΔTm is the change in melting temperature against a reference sample. Usually IC50 stands for the concentration at which inhibition is half-maximal. Read a low IC50 as inhibition by little substance.

Structures are written as SMILES.

On to `O=C1OCC2=C1C(c1cccc(F)c1)c1cc3c(cc1N2CCO)OCO3` (stereo not drawn) [SU056, 9-(3-fluorophenyl)-5-(2-hydroxyethyl)-6,9-dihydro-[1,3]dioxolo[4,5-g]furo[3,4-b]quinolin-8(5H)-one], for which the “stability of translation-associated proteins (eIFs, RPL, RPS)” value at YB-1 (1 μM) is reported as “increased the overall stability”. Further, on YB-1, the thermal shift (ΔTm) at 1 µM stood at 13.8 °C. Besides, the 50% inhibitory concentration (IC50) was found to be 1170 ± 340 nM in the experiment on SUM159 cells; 1500 ± 120 nM with EMT6 cells; 1360 ± 270 nM with MDA-MB-468 cells; 7150 ± 1260 nM in the experiment with 4T1 cells; 1540 ± 140 nM in the experiment with E0771 cells; 1270 ± 190 nM in the experiment on MDA-MB-231 cells. In experiment [1], the “levels of YB-1 and RPL-11 in tumors” value is “decrease”.
